Laboratory results from ChEMBL document CHEMBL1133236, “Synthesis and antifungal activities of 5/6-arylamino-4,7-dioxobenzothiazoles” (Bioorg Med Chem Lett, 2000).
Values after ≈ are worked out from the molar mass of the structure shown.

Tests used:
Aspergillus niger = test: Antifungal activity against Aspergillus niger KCTC 1231; assay type: functional
Candida albicans = test: Antifungal activity against Candida albicans ATCC 10231; assay type: functional
Pichia kudriavzevii = test: Antifungal activity against Candida krusei ATCC 749; assay type: functional
Candida tropicalis = test: Antifungal activity against Candida tropicalis ATCC 28775; assay type: functional
HepG2 = test: In vitro cytotoxicity against HepG2 cells (Hepatocarcinoma from ATCC) by MTT assay; assay type: functional, cell-based, Homo sapiens
[1] = Homo sapiens, HepG2, read-out: IC50

Row | MIC (Aspergillus niger) [mg/L] | MIC (Candida albicans) [mg/L] | MIC (Pichia kudriavzevii) [mg/L] | MIC (Candida tropicalis) [mg/L] | Compound | IC50 (HepG2; [1]) [mg/L] | IC50 (HepG2; hepg2) [mg/L]
1 | 3.2 (≈ 11.7 µM) | 12.5 (≈ 45.6 µM) | 3.2 (≈ 11.7 µM) | 6.3 (≈ 23 µM) | O=C1C=C(Nc2ccc(F)cc2)C(=O)c2scnc21 | 17.9 (≈ 65.3 µM) | 
2 | 12.5 (≈ 35.8 µM) | 12.5 (≈ 35.8 µM) | 6.3 (≈ 18 µM) | 0.8 (≈ 2.29 µM) | Cc1nc2c(s1)C(=O)C=C(Nc1cccc(Br)c1)C2=O | 15 (≈ 43 µM) | 
3 | 12.5 (≈ 59.7 µM) | 25 (≈ 119 µM) | 50 (≈ 239 µM) | 25 (≈ 119 µM) | COC1=CC(=O)c2sc(C)nc2C1=O |  | 
4 | 3.2 (≈ 9.4 µM) | 12.5 (≈ 36.7 µM) | 3.2 (≈ 9.4 µM) | 12.5 (≈ 36.7 µM) | O=C1C=C(Nc2ccc(OC(F)(F)F)cc2)C(=O)c2scnc21 | > 100 | 
5 | 25 (≈ 128 µM) | 50 (≈ 256 µM) | 12.5 (≈ 64 µM) | 25 (≈ 128 µM) | COC1=CC(=O)c2ncsc2C1=O |  | 
6 | 12.5 (≈ 46.2 µM) | 6.3 (≈ 23.3 µM) | 0.4 (≈ 1.48 µM) | 1.6 (≈ 5.92 µM) | Cc1nc2c(s1)C(=O)C=C(Nc1ccccc1)C2=O | 1.5 (≈ 5.55 µM) | 
7 | 6.3 (≈ 20.7 µM) | 12.5 (≈ 41 µM) | 25 (≈ 82 µM) | 25 (≈ 82 µM) | Cc1nc2c(s1)C(=O)C=C(Nc1ccc(Cl)cc1)C2=O | 3.4 (≈ 11.2 µM) | 
8 | 3.2 (≈ 11.1 µM) | 3.2 (≈ 11.1 µM) | 3.2 (≈ 11.1 µM) | 6.3 (≈ 21.9 µM) | Cc1nc2c(s1)C(=O)C=C(Nc1ccc(F)cc1)C2=O | 1.6 (≈ 5.55 µM) | 
9 | 1.6 (≈ 5.09 µM) | 3.2 (≈ 10.2 µM) | 3.2 (≈ 10.2 µM) | 6.3 (≈ 20 µM) | CCOc1ccc(NC2=CC(=O)c3sc(C)nc3C2=O)cc1 | 4.9 (≈ 15.6 µM) | 
10 | 12.5 (≈ 41 µM) | 12.5 (≈ 41 µM) | 6.3 (≈ 20.7 µM) | 6.3 (≈ 20.7 µM) | Cc1nc2c(s1)C(=O)C=C(Nc1cccc(Cl)c1)C2=O | 5.7 (≈ 18.7 µM) | 
11 | 12.5 (≈ 41.9 µM) | 12.5 (≈ 41.9 µM) | 3.2 (≈ 10.7 µM) | 0.4 (≈ 1.34 µM) | Cc1nc2c(s1)C(=O)C=C(Nc1ccc(C)c(C)c1)C2=O | 4.8 (≈ 16.1 µM) | 
12 | 12.5 (≈ 43 µM) | 12.5 (≈ 43 µM) | 25 (≈ 86 µM) | 12.5 (≈ 43 µM) | O=C1C=C(Nc2ccc(Cl)cc2)C(=O)c2scnc21 | 16.4 (≈ 56.4 µM) | 
13 | 3.2 (≈ 12.5 µM) | 12.5 (≈ 48.8 µM) | 6.3 (≈ 24.6 µM) | 6.3 (≈ 24.6 µM) | O=C1C=C(Nc2ccccc2)C(=O)c2scnc21 | 14.7 (≈ 57.4 µM) | 
14 | 3.2 (≈ 10.7 µM) | 12.5 (≈ 41.6 µM) | 6.3 (≈ 21 µM) | 12.5 (≈ 41.6 µM) | CCOc1ccc(NC2=CC(=O)c3ncsc3C2=O)cc1 | 23.6 (≈ 78.6 µM) | 
15 | 1.6 (≈ 5.83 µM) | 12.5 (≈ 45.6 µM) | 3.2 (≈ 11.7 µM) | 12.5 (≈ 45.6 µM) | O=C1C=C(Nc2cccc(F)c2)C(=O)c2scnc21 | > 100 | 
16 | 12.5 (≈ 35.3 µM) | 12.5 (≈ 35.3 µM) | 12.5 (≈ 35.3 µM) | 6.3 (≈ 17.8 µM) | CCCCCCc1ccc(NC2=CC(=O)c3sc(C)nc3C2=O)cc1 | 22 (≈ 62.1 µM) | 
17 | 6.3 (≈ 17.8 µM) | 12.5 (≈ 35.3 µM) | 25 (≈ 70.6 µM) | 0.8 (≈ 2.26 µM) | Cc1nc2c(s1)C(=O)C=C(Nc1ccc(OC(F)(F)F)cc1)C2=O | > 100 | 
18 | 6.3 (≈ 18.6 µM) | 12.5 (≈ 36.9 µM) | 3.2 (≈ 9.46 µM) | 12.5 (≈ 36.9 µM) | Cc1nc2c(s1)C(=O)C=C(Nc1ccc(C(F)(F)F)cc1)C2=O | > 100 | 
19 | 1.6 (≈ 12.4 µM) | 3.2 (≈ 24.8 µM) | 3.2 (≈ 24.8 µM) | 50 (≈ 387 µM) | Nc1nc(=O)[nH]cc1F [FLUCYTOSINE] |  | 
20 |  |  |  |  | CISPLATIN |  | 0.33

Row | Compound | MIC (Aspergillus niger) [mg/L] | MIC (Candida albicans) [mg/L] | MIC (Pichia kudriavzevii) [mg/L] | MIC (Candida tropicalis) [mg/L] | IC50 (HepG2; [1]) [mg/L] | IC50 (HepG2; hepg2) [mg/L]
21 | Cc1ccc(NC2=CC(=O)c3sc(C)nc3C2=O)cc1 | 12.5 (≈ 44 µM) | 6.3 (≈ 22.2 µM) | 1.6 (≈ 5.63 µM) | 1.6 (≈ 5.63 µM) | 1.2 (≈ 4.22 µM) | 
